{"source": "patent US20240409963A1", "about": "“Use of Inhibitors to Increase Efficiency of Crispr/CAS Insertions” (AstraZeneca AB, priority 2021, published 2024)", "key": {"HEK293T cells [1]": {"system": "HEK293T cells", "test": "CRISPR/Cas9 double-strand break repair pathway and knock-in analysis (RIMA, amplicon sequencing), Examples 1-3", "format": "cell-based", "description": "(§1) The effect of inhibitors of the MMEJ and NHEJ pathways on CRISPR-Cas-induced DNA double stranded break repair pathways was examined using the process shown schematically in FIG. 2A. Briefly, HEK293T cells were seeded into a 96-well plate 20 hours before transfection with plasmids encoding SpCas9 and a guide RNA (sgRNA) targeting CD34 together with a single-stranded oligonucleotide donor (ssDNA). […] The Pol Q inhibitors used are PolQ_2, PolQ_3, PolQ_4, PolQ_5, PolQ_6 or PolQ_7. Sixty hours post-transfection, genomic DNA was harvested and sequenced using deep-targeted amplicon sequencing. Genetic variants of the sequencing data were determined using a bioinformatic workflow, and the percentages of DNA double-stranded break repair by the MMEJ, NHEJ, and HDR pathways were determined using Rational InDel Meta-Analysis (RIMA). See, e.g., Taheri-Ghafarokhi et al, Nuc. Acids Res., 2018, 46 (16): 8417-8434. The RIMA results are plotted as shown in FIG. 2B, where deletions associated with microhomologies are visualized according to the bars shown in the figure.\nThe effect of NHEJ and MMEJ inhibitors on the CRISPR/Cas-mediated knock-in efficiency was determined in both mutated and mapped reads.\nThe effect of MMEJ pathway inhibition on mutated and mapped reads was assessed."}, "HEK293T cells [2]": {"system": "HEK293T cells", "test": "Cell confluency and transfection efficiency in CRISPR/Cas-transfected cells, Example 4", "format": "cell-based", "settings": "AZD7648 at a final concentration of 1 mM, FIG. 10", "description": "as §1\nHEK293T cells were cultured, transfected, and treated with NHEJ and MMEJ inhibitors as described in Example 1. Cell confluency and transfection efficiency was assessed in transfected cells treated with NHEJ and MMEJ inhibitors."}, "[3]": {"system": "induced Pluripotent Stem Cells (iPSC)", "test": "Double-strand break repair pathways in Cas9-inducible iPSCs, Example 5", "format": "cell-based", "settings": "single inhibitor: AZD7648 1 μM or PolQ inhibitor 3 μM, vs DMSO, FIG. 12", "description": "(§2) The effect of NHEJ and/or MMEJ pathway inhibition on CRISPR-Cas-induced DNA double stranded break repair pathways in iPSCs was examined. Briefly, iPSCs comprising an inducible Cas9 gene were seeded into a 96-well plate 20 hours before transfection with a plasmid encoding a guide RNA (sgRNA) targeting one of three separate target sites together with a single-stranded oligonucleotide donor (ssDNA), followed by induction of Cas9 expression. […] Sixty hours post-transfection, the percentage of double-stranded break repair by the HDR, NHEJ, and MMEJ pathways was determined as discussed in Example 1."}, "Cas9-inducible iPSCs": {"system": "Cas9-inducible iPSCs", "test": "SSTR-mediated gene knock-in in Cas9-inducible iPSCs, Example 6", "format": "cell-based", "settings": "single inhibitor, mapped reads, FIG. 13", "description": "as §2\nThe effect of NHEJ and MMEJ pathway inhibition on gene knock-in efficiency mediated by the SSTR pathway in iPSCs was investigated. Briefly, Cas9-inducible iPSCs were cultured and transfected with sgRNA and ssDNA polynucleotides as described in Example 5."}, "HEK293T cells [4]": {"system": "HEK293T cells", "test": "PolQ2 and PolQ6 on precise gene editing outcome at various target-sites, Example 9", "format": "cell-based", "settings": "DNAPK inhibitor 1 μM, PolQ inhibitor 0 μM; for MMEJ indels Mean / NHEJ indels Mean / Total editing Mean: HEK293T, ssDNA donor; for Precise KI fold increase: vs DMSO", "description": "(§3) HEK293T cells were seeded into 96-well plates and allowed to attach for 20 hours."}, "HEK293T cells [5]": {"system": "HEK293T cells", "test": "PolQ inhibitor ART558 titration on precise gene editing outcomes, Example 10", "format": "cell-based", "settings": "DNAPK inhibitor 1 μM, PolQ inhibitor 0 μM", "description": "as §3"}, "HEK293T cells [6]": {"system": "HEK293T cells", "test": "Off-target editing at HEK3 and HEK4 on- and off-target sites with DNAPK and PolQ inhibitors, Example 12", "format": "cell-based", "settings": "DNAPK inhibitor 1 μM, PolQ inhibitor 0 μM", "description": "as §3"}, "HEK293T cells [7]": {"system": "HEK293T cells", "test": "Different DNAPK inhibitors on precise gene editing outcomes, Example 8", "settings": "for HDR to indel ratio / Precise KI fold increase: gINS + ssDNA; for Precise KI fold increase: vs DMSO; for MMEJ indels Mean / NHEJ indels Mean / Total editing Mean: sgRNA CD34 (gINS) + ssDNA, 70 hours post-transfection", "experimental": "Cells allowed to attach for 12 hours before transfection. Cells were transfected with DNA plasmids encoding for SpCas9-EGFP and a sgRNAs targeting CD34 (gINS) in the presence of single-stranded oligonucleotide donor (ssDNA). 70 hours post-transfection cell confluence and EGFP-based transfection efficiencies were determined with the Incucyte S3. Genomic DNA was extracted and editing outcome was analysed through deep-targeted amplicon sequencing using bioinformatic analysis."}, "[8]": {"settings": "SpCas9 + sgRNA CD34 + ssDNA, AZD7648 1 μM alone or in combination with Pol Q inhibitors, vs DMSO controls, FIG. 4"}, "[9]": {"settings": "HEK293T, sgRNA CD34 (gMEJ) + ssDNA"}}, "data": [{"compound": "Cc1cc2ncnn2cc1Nc1ncc2c(n1)n(C1CCOCC1)c(=O)n2C", "note": "[AZD7648]", "values": [{"measurement": "CRISPR/Cas-mediated editing efficiency", "setting": "HEK293T cells [1]; AZD7648 1 μM alone and in combination with Pol Q inhibitors, FIG. 5", "value": "did not affect"}, {"measurement": "double-strand break repair by the HDR pathway", "setting": "HEK293T cells [1]; [8]", "value": "marked in increase"}, {"measurement": "repair by the MMEJ and NHEJ pathways", "setting": "HEK293T cells [1]; [8]", "value": "decreased"}, {"measurement": "cell confluency", "setting": "HEK293T cells [2]", "value": "no significant effect"}, {"measurement": "double-strand break repair by the HDR pathway", "setting": "[3]", "value": "marked in increase"}, {"measurement": "repair by the MMEJ and NHEJ pathways", "setting": "[3]", "value": "decreased"}, {"measurement": "SSTR-mediated gene knock-in at all three target sites", "setting": "Cas9-inducible iPSCs", "value": "increased"}, {"measurement": "MMEJ indels Mean", "setting": "HEK293T cells [4]; target-site gDel", "value": 8.9}, {"measurement": "NHEJ indels Mean", "setting": "HEK293T cells [4]; target-site gDel", "value": 1.3}, {"measurement": "Total editing Mean", "setting": "HEK293T cells [4]; target-site gDel", "value": 77.3}, {"measurement": "MMEJ indels Mean", "setting": "HEK293T cells [4]; target-site gMej", "value": 27.9}, {"measurement": "NHEJ indels Mean", "setting": "HEK293T cells [4]; target-site gMej", "value": 2.9}, {"measurement": "Total editing Mean", "setting": "HEK293T cells [4]; target-site gMej", "value": 83.1}, {"measurement": "MMEJ indels Mean", "setting": "HEK293T cells [4]; target-site glns", "value": 13.3}, {"measurement": "NHEJ indels Mean", "setting": "HEK293T cells [4]; target-site glns", "value": 1.3}, {"measurement": "Total editing Mean", "setting": "HEK293T cells [4]; target-site glns", "value": 83.0}, {"measurement": "KI to indel ratio", "setting": "HEK293T cells [4]; target-site gDel", "value": 4.0}, {"measurement": "Precise KI fold increase", "setting": "HEK293T cells [4]; target-site gDel", "value": 2.5, "unit": "fold"}, {"measurement": "KI to indel ratio", "setting": "HEK293T cells [4]; target-site gMej", "value": 1.0}, {"measurement": "Precise KI fold increase", "setting": "HEK293T cells [4]; target-site gMej", "value": 2.2, "unit": "fold"}, {"measurement": "KI to indel ratio", "setting": "HEK293T cells [4]; target-site glns", "value": 3.3}, {"measurement": "Precise KI fold increase", "setting": "HEK293T cells [4]; target-site glns", "value": 3.3, "unit": "fold"}, {"measurement": "MMEJ indels Mean", "setting": "HEK293T cells [5]; [9]", "value": 32.6}, {"measurement": "NHEJ indels Mean", "setting": "HEK293T cells [5]; [9]", "value": 1.3}, {"measurement": "Total editing Mean", "setting": "HEK293T cells [5]; [9]", "value": 74.4}, {"measurement": "KI to indel ratio", "setting": "HEK293T cells [5]; gMEJ + ssDNA", "value": 0.7}, {"measurement": "OT1 off-target editing Mean", "setting": "HEK293T cells [6]; HEK3 nodonor", "value": 41.9}, {"measurement": "OT2 off-target editing Mean", "setting": "HEK293T cells [6]; HEK3 nodonor", "value": 32.5}, {"measurement": "OT3 off-target editing Mean", "setting": "HEK293T cells [6]; HEK3 nodonor", "value": 16.3}, {"measurement": "OT4 off-target editing Mean", "setting": "HEK293T cells [6]; HEK3 nodonor", "value": 0.3}, {"measurement": "on-target editing Mean", "setting": "HEK293T cells [6]; HEK3 nodonor", "value": 73.8}, {"measurement": "OT1 off-target editing Mean", "setting": "HEK293T cells [6]; HEK3 ssDNA", "value": 17.7}, {"measurement": "OT2 off-target editing Mean", "setting": "HEK293T cells [6]; HEK3 ssDNA", "value": 12.7}, {"measurement": "OT3 off-target editing Mean", "setting": "HEK293T cells [6]; HEK3 ssDNA", "value": 7.6}, {"measurement": "OT4 off-target editing Mean", "setting": "HEK293T cells [6]; HEK3 ssDNA", "value": 0.1}, {"measurement": "on-target editing Mean", "setting": "HEK293T cells [6]; HEK3 ssDNA", "value": 61.5}, {"measurement": "OT1 off-target editing Mean", "setting": "HEK293T cells [6]; HEK4 nodonor", "value": 12.7}, {"measurement": "OT2 off-target editing Mean", "setting": "HEK293T cells [6]; HEK4 nodonor", "value": 7.3}, {"measurement": "OT3 off-target editing Mean", "setting": "HEK293T cells [6]; HEK4 nodonor", "value": 36.3}, {"measurement": "on-target editing Mean", "setting": "HEK293T cells [6]; HEK4 nodonor", "value": 9.8}, {"measurement": "OT1 off-target editing Mean", "setting": "HEK293T cells [6]; HEK4 ssDNA", "value": 5.4}, {"measurement": "OT2 off-target editing Mean", "setting": "HEK293T cells [6]; HEK4 ssDNA", "value": 3.3}, {"measurement": "OT3 off-target editing Mean", "setting": "HEK293T cells [6]; HEK4 ssDNA", "value": 18.2}, {"measurement": "on-target editing Mean", "setting": "HEK293T cells [6]; HEK4 ssDNA", "value": 15.6}, {"measurement": "HDR to indel ratio", "setting": "HEK293T cells [7]; DNAPK inhibitor 0.3125 μM", "value": 0.3}, {"measurement": "Precise KI fold increase", "setting": "HEK293T cells [7]; DNAPK inhibitor 0.3125 μM", "value": 1.4, "unit": "fold"}, {"measurement": "HDR to indel ratio", "setting": "HEK293T cells [7]; DNAPK inhibitor 0.625 μM", "value": 0.5}, {"measurement": "Precise KI fold increase", "setting": "HEK293T cells [7]; DNAPK inhibitor 0.625 μM", "value": 2.0, "unit": "fold"}, {"measurement": "HDR to indel ratio", "setting": "HEK293T cells [7]; DNAPK inhibitor 1.25 μM", "value": 0.6}, {"measurement": "Precise KI fold increase", "setting": "HEK293T cells [7]; DNAPK inhibitor 1.25 μM", "value": 2.0, "unit": "fold"}, {"measurement": "HDR to indel ratio", "setting": "HEK293T cells [7]; DNAPK inhibitor 5 μM", "value": 1.1}, {"measurement": "Precise KI fold increase", "setting": "HEK293T cells [7]; DNAPK inhibitor 5 μM", "value": 2.9, "unit": "fold"}, {"measurement": "HDR to indel ratio", "setting": "HEK293T cells [7]; DNAPK inhibitor 10 μM", "value": 1.1}, {"measurement": "Precise KI fold increase", "setting": "HEK293T cells [7]; DNAPK inhibitor 10 μM", "value": 2.8, "unit": "fold"}, {"measurement": "MMEJ indels Mean", "setting": "HEK293T cells [7]; DNAPK inhibitor 0.3125 μM", "value": 15.2}, {"measurement": "NHEJ indels Mean", "setting": "HEK293T cells [7]; DNAPK inhibitor 0.3125 μM", "value": 28.6}, {"measurement": "Total editing Mean", "setting": "HEK293T cells [7]; DNAPK inhibitor 0.3125 μM", "value": 69.5}, {"measurement": "MMEJ indels Mean", "setting": "HEK293T cells [7]; DNAPK inhibitor 0.625 μM", "value": 17.4}, {"measurement": "NHEJ indels Mean", "setting": "HEK293T cells [7]; DNAPK inhibitor 0.625 μM", "value": 18.3}, {"measurement": "Total editing Mean", "setting": "HEK293T cells [7]; DNAPK inhibitor 0.625 μM", "value": 66.0}, {"measurement": "MMEJ indels Mean", "setting": "HEK293T cells [7]; DNAPK inhibitor 1.25 μM", "value": 16.5}, {"measurement": "NHEJ indels Mean", "setting": "HEK293T cells [7]; DNAPK inhibitor 1.25 μM", "value": 8.7}, {"measurement": "Total editing Mean", "setting": "HEK293T cells [7]; DNAPK inhibitor 1.25 μM", "value": 53.3}, {"measurement": "MMEJ indels Mean", "setting": "HEK293T cells [7]; DNAPK inhibitor 5 μM", "value": 18.5}, {"measurement": "NHEJ indels Mean", "setting": "HEK293T cells [7]; DNAPK inhibitor 5 μM", "value": 2.5}, {"measurement": "Total editing Mean", "setting": "HEK293T cells [7]; DNAPK inhibitor 5 μM", "value": 57.5}, {"measurement": "MMEJ indels Mean", "setting": "HEK293T cells [7]; DNAPK inhibitor 10 μM", "value": 16.9}, {"measurement": "NHEJ indels Mean", "setting": "HEK293T cells [7]; DNAPK inhibitor 10 μM", "value": 2.2}, {"measurement": "Total editing Mean", "setting": "HEK293T cells [7]; DNAPK inhibitor 10 μM", "value": 53.7}]}]}
